Measured values published in patent US20240245674A1, “DIAGNOSTIC METHODS AND COMPOSITIONS FOR TREATMENT OF CANCER” (LINNAEUS THERAPEUTICS, INC., priority 2021, published 2024).

Key:
Format in all cases: in vivo, human
[1] = system: prolactin (systemic marker of GPER activity); experiment: Prolactin induction in blood of patients after LNS8801 dosing, versus best RECIST response
Method: Blood was collected from patients pre-dose and at 0.5, 1, 2, 4, 7, and 10 hours after dosing and analyzed for the concentration of prolactin. Prolactin induction was calculated by dividing the average of the 4 hour through 10 hour timepoints by the average of pre-dose to 2 hour timepoints. Prolactin-induction was plotted with the best RECIST response of target lesions, and linear regression was performed.
Blood was collected from patients pre-dose and 0.5, 1, 2, 4, 7, and 10 hours after dosing and analyzed for the concentration of prolactin (PRLX). Prolactin induction was calculated by dividing the average of the 4 hour through 10 hour timepoints by the average of pre-dose to 2 hour timepoints.

[2] = LNS8801 pharmacokinetics in patients with advanced cancer (plasma concentration by mass spectrometry)
Method: Patients with advanced cancer were dosed with 10, 40, and 125 mg of LNS8801 in a capsule on three consecutive days/week. Blood was collected from patients pre-dose and at 0.5, 1, 2, 4, 7, 10, and 24 hours after dosing. Samples were analyzed by mass spectrometry for the concentration of LNS8801. […] LNS8801 is well absorbed, producing plasma exposures that are predicted to be efficacious, even at the lowest dose evaluated. Half-life in humans is approximately 10 hours.

[3] = system: c-Myc positive tumor cells; experiment: c-Myc immunohistochemistry on pre- and on-treatment tumor biopsies; conditions: on-treatment biopsies 8-19 days after start vs pre-treatment; most samples
Source text: Pre-treatment biopsies were collected within 28 days of initiating treatment, and on-treatment biopsies were collected 8-19 days after LNS8801 treatment began. Tumor samples were formalin-fixed, paraffin-embedded, sectioned, and assessed for c-Myc positive tumor cells by immunohistochemistry by a blinded pathologist.

In the case of `CC(=O)c1ccc2c(c1)[C@@H]1C=CC[C@@H]1[C@H](c1cc3c(cc1Br)OCO3)N2` [LNS8801, 1-((3aS,4R,9bR)-4-(6-bromobenzo[d][1,3]dioxol-5-yl)-3a,4,5,9b-tetrahydro-3H-cyclopenta[c]quinolin-8-yl)ethan-1-one], the “Patients lacking a prolactin response (<1.25-fold induction)” value ([1]; evaluable patients, every such patient had progressive disease) is reported as 35%, the “Change in prolactin levels on treatment” value ([1]; patients with progressive disease under RECIST) is reported as “reduction or no change in prolactin levels” and the “Absorption / plasma exposure” value ([2]; 10, 40, 125 mg capsule) is reported as “well absorbed”. The half-life ([2]; human, plasma, oral, humans, 10, 40, 125 mg capsule, three consecutive days/week) was ~10 h and the “Change in c-Myc positive tumor cells after treatment” value [3] was “dramatic depletion in c-Myc positive tumor cells”.
